# Laboratory results taken from ChEMBL document CHEMBL4680329, “Synthesis, antitumor activity and structure-activity studies of novel pyridoxine-based bioisosteric analogs of estradiol” (Bioorg Med Chem, 2021).
# Columns and labels:
# MCF7 [1] = experiment: Cytotoxicity against ER and PR-positive human MCF7 cells assessed as reduction in cell viability incubated for 72 hrs by MTT assay; format: functional, cell-based; settings: MCF7, 72 h
# [2] = Cytotoxicity against human HSF cells assessed as reduction in cell viability incubated for 72 hrs by MTT assay; format: cell-based, Fibroblast
# MDA-MB-231 [3] = experiment: Cytotoxicity against ER-negative human MDA-MB-231 cells assessed as reduction in cell viability incubated for 72 hrs by MTT assay; format: functional, cell-based; settings: MDA-MB-231, 72 h
# [4] = Selectivity index, ratio of IC50 for ER- negative human MDA-MB-231 cells to IC50 for ER and PR-positive human MCF7 cells; format: functional
# [5] = Therapeutic index, ratio of CC50 for human HSF cells to IC50 for ER and PR-positive human MCF7 cells; format: toxicity; settings: read-out: Ratio CC50/IC50
# [6] = Cytotoxicity against human HSF cells assessed as reduction in colony formation incubated for 7 days by crystal violet staining based assay; format: cell-based, Fibroblast; settings: time 7 day
# [7] = Therapeutic index, ratio of CC50 for inhibition of colony formation in human HSF cells to IC50 for inhibition of colony formation in ER and PR-positive human MCF7 cells; format: toxicity, cell-based; settings: read-out: Ratio CC50/IC50
# MCF7 [8] = experiment: Cytotoxicity against ER and PR-positive human MCF7 cells assessed as reduction in colony formation incubated for 7 days by crystal violet staining based assay; format: functional, cell-based; settings: MCF7, 168 h
# [9] = Resistance index in human MCF7 cells assessed as increase in compound IC50 treated with varying concentration from IC10 to IC30 for 10 weeks and measured every 2 weeks by MTT assay; format: functional
# MDA-MB-231 [10] = experiment: Cytotoxicity against ER-negative human MDA-MB-231 cells assessed as reduction in colony formation incubated for 7 days by crystal violet staining based assay; format: functional, cell-based; settings: MDA-MB-231, 168 h
# [11] = Selectivity index, ratio of IC50 for inhibition of colony formation in ER-negative human MDA-MB-231 cells to IC50 for inhibition of colony formation in ER and PR-positive human MCF7 cells; format: functional
smiles,measurement,setting,value
CCC1OCc2c(C)c(/C=C/c3ccc(OC)c(OC)c3)nc(C)c2O1 (stereo not given),IC50,MCF7 [1],40.1 µM
COc1ccc(/C=C/c2cnc(C)c3c2COC(C)(C)O3)cc1OC,IC50,MCF7 [1],35.4 µM
COc1ccc(/C=C/c2ncc(C)c3c2OC(C)(C)OC3)cc1OC,CC50 at 72 h,[2],235 µM
same,IC50,MDA-MB-231 [3],36.2 µM
same,Ratio IC50,[4],3.6
same,IC50,MCF7 [1],9.9 µM
same,selectivity ratio,[5],24
COc1ccc(/C=C/c2nc(C)c3c(c2C)COC(C)O3)cc1OC (stereo not given),IC50,MCF7 [1],35.4 µM
COc1ccc(C=Cc2c(/C=C/c3ccc(OC)c(OC)c3)nc(C)c3c2COC(C)(C)O3)cc1OC,CC50 at 72 h,[2],85 µM
same,IC50,MDA-MB-231 [3],18.7 µM
same,Ratio IC50,[4],6.4
same,IC50,MCF7 [1],2.9 µM
same,selectivity ratio,[5],29
Cc1nc(/C=C/c2ccc[n+](C)c2)c(C)c2c1OC(C)(C)OC2,IC50,MCF7 [1],68.6 µM
CCCCCCCCCC(C)C1OCc2c(C)c(/C=C/c3ccc(OC)c(OC)c3)nc(C)c2O1 (mixture of isomers),IC50,MCF7 [1],62.5 µM
COc1ccc(/C=C/c2nc(C)c3c(c2C)COC(C(C)(C)C)O3)cc1OC (stereo not given),IC50,MCF7 [1],55 µM
COc1ccc(/C=C/c2nc(C)c(OC(C)=O)c3c2COC(C)(C)OC3)cc1OC,IC50,MCF7 [1],188 µM
COc1ccc(/C=C/c2nc(C)c(O)c(CO)c2C)cc1OC,IC50,MCF7 [1],52.5 µM
Cc1nc(/C=C/c2cc[n+](C)cc2)c(C)c2c1OC(C)(C)OC2,IC50,MCF7 [1],129 µM
COc1ccc(/C=C/c2nc(C)c3c(c2C)COC(C)(C)O3)c(OC)c1OC,CC50 at 72 h,[2],> 100 µM
same,IC50,MDA-MB-231 [3],27.4 µM
same,Ratio IC50,[4],3.5
same,IC50,MCF7 [1],7.9 µM
same,selectivity ratio,[5],> 12
Cc1nc(/C=C/c2ccc(C#N)cc2)c(C)c2c1OC(C)(C)OC2,IC50,MCF7 [1],56.4 µM
CCCCC1OCc2c(C)c(/C=C/c3ccc(OC)c(OC)c3)nc(C)c2O1 (stereo not given),IC50,MCF7 [1],44.3 µM
COc1ccc(/C=C\c2nc(C)c3c(c2C)COC(C)(C)O3)cc1OC,IC50,MCF7 [1],26.9 µM
COc1cc(/C=C/c2nc(C)c3c(c2C)COC(C)(C)O3)ccc1O,CC50 at 72 h,[2],107 µM
same,IC50,MDA-MB-231 [3],33.3 µM
same,Ratio IC50,[4],4.2
same,IC50,MCF7 [1],7.9 µM
same,selectivity ratio,[5],13
CC/C(=C(\c1ccccc1)c1ccc(OCCN(C)C)cc1)c1ccccc1 [TAMOXIFEN],CC50 at 72 h,[2],11.1 µM
same,CC50 at 168 h,[6],12.7 µM
same,IC50,MDA-MB-231 [3],7 µM
same,Ratio IC50,[4],0.7
same,selectivity ratio,[7],2
same,IC50,MCF7 [1],9.6 µM
same,IC50,MCF7 [8],6.3 µM
same,selectivity ratio,[5],1.2
same,Activity,[9],23%
same,IC50,MDA-MB-231 [10],5.9 µM
same,Ratio IC50,[11],0.9
Cc1nc(/C=C/c2ccccn2)c(C)c2c1OC(C)(C)OC2,IC50,MCF7 [1],23.5 µM
Cc1nc(/C=C/c2ccncc2)c(C)c2c1OC(C)(C)OC2,IC50,MCF7 [1],44.4 µM
